Assay results published in PMC11714206, “Massively Parallel Screening of Toll/Interleukin‐1 Receptor (TIR)‐Derived Peptides Reveals Multiple Toll‐Like Receptors (TLRs)‐Targeting Immunomodulatory Peptides” (Advanced Science, 2024).
Values joined by “and” are separate entries in the source; they are usually repeats but may differ in a detail not shown here. Identical values can stand only once.

Target: T1, MAL^TIR (Homo sapiens, UniProt P58753)
T1 construct: MAL (residues 79–221); 6xHis; made in house; host or cells: E. coli BL21 (DE3)
T1 sequence (P58753 79-221): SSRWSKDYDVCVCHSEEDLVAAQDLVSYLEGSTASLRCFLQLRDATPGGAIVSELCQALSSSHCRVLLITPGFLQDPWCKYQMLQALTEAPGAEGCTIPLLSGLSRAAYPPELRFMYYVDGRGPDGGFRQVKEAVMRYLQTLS
Assay: T‐Surf phage library (P8 and P3) selection against MAL^TIR, four rounds, NGS read counts
Type: binding
Settings: for P8_MAL Rank (after) / P8_MAL Rank (before): P8 library; for Population: 4th round of selection against MAL TIR, share of NGS reads; for P3_MAL Rank (after) / P3_MAL Rank (before): P3 library
Outline: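 Four panning rounds on TIR domain adsorbed at 5 µg mL^−1; binding 1 h at 20–22 °C, elution with 100 mM HCl. Output: NGS read counts of round‐4 pools versus naïve library.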

[1] = P8_MAL: rank by count after grouping
[2] = P8_MAL: rank by count before grouping
[3] = selection against MAL, rank after grouping
[4] = selection against MAL, rank before grouping
[5] = selection against MAL TIR, rank by count after grouping
[6] = selection against MAL TIR, rank by count before grouping
[7] = selection against MAL, rank by count after grouping
[8] = selection against MAL, rank by count before grouping
[9] = P8_MAL pool: P8 T-Surf phage library
[10] = 4R selection against MAL, rank after grouping
[11] = 4R selection against MAL, rank before grouping
[12] = P3_MAL: rank by count after grouping
[13] = P3_MAL: rank by count before grouping
[14] = P3_MAL pool: P3 T-Surf phage library

WFYERLVSLLMRDTKV
Rank (after) [1]: 152 | Rank (before) [2]: 1193

WFYERLVSLMLRDKKV
Rank (after) [1]: 172 | Rank (before) [2]: 1269

WFYERLVSLMLRNTKV
P8_MAL Rank (after) [3]: 540 | P8_MAL Rank (before) [4]: 1225

WFYERLVSMITRDTNV
P8_MAL Rank (after) [3]: 486 | P8_MAL Rank (before) [4]: 1271

WFYERLVSMVLRDTKV
Rank (after) [1]: 406 | Rank (before) [2]: 1287

WFYERMVRLILRDTKV
P8_MAL Rank (after) [5]: 247 | P8_MAL Rank (before) [6]: 1291

WFYERMVSLILRDTKL
Rank (after) [1]: 136 | Rank (before) [2]: 1262

WFYERMVSMILRDTKV
P8_MAL Rank (after) [5]: 280 | P8_MAL Rank (before) [6]: 1261

WFYERPVSLILRDTIV
Rank (after) [1]: 153 | Rank (before) [2]: 1256

WFYERQVSLILRDTNV
Rank (after) [1]: 98 | Rank (before) [2]: 1259

WFYERRVSLILLLTIV
P8_MAL Rank (after) [7]: 684 | P8_MAL Rank (before) [8]: 1253

WFYESLVSLILRDTIV
Rank (after) [1]: 122 | Rank (before) [2]: 1299

WFYESLVSLLTRDTKV
P8_MAL Rank (after) [3]: 547 | P8_MAL Rank (before) [4]: 1298

WFYESLVSMIMRDTKV
P8_MAL Rank (after) [5]: 213 | P8_MAL Rank (before) [6]: 1303

WFYGRLVSLILRDTKV
Population [9]: 0.0034%

WFYGRLVSLMLRDAKR
P8_MAL Rank (after) [10]: 595 | P8_MAL Rank (before) [11]: 1130

WFYKPLVSLILRDTKA
P8_MAL Rank (after) [10]: 619 | P8_MAL Rank (before) [11]: 1307

WFYKRLVSLILRDTKV
Population [9]: 0.00402%

WFYNHLVSLFLRDTKV
P8_MAL Rank (after) [3]: 520 | P8_MAL Rank (before) [4]: 1306

WFYVRLVILALRDNNM
P8_MAL Rank (after) [7]: 690 | P8_MAL Rank (before) [8]: 1128

WHFHLRLRMHDLLQNI
P3_MAL Rank (after) [7]: 738 | P3_MAL Rank (before) [8]: 1300

WHFHLRLRMLALLQKM
P3_MAL Rank (after) [10]: 582 | P3_MAL Rank (before) [11]: 1294

WHFHLRLRMPDPLQKI
Rank (after) [12]: 432 | Rank (before) [13]: 1297

WHFHVRLCLRKLLQAM
P3_MAL Rank (after) [7]: 694 | P3_MAL Rank (before) [8]: 1290

WHFPLPLRMQELLRKM
Rank (after) [12]: 436 | Rank (before) [13]: 1289

WHLHLRLRMHDLLQQM
P3_MAL Rank (after) [3]: 537 | P3_MAL Rank (before) [4]: 1311

WIYERLVSRILRDTKV
Rank (after) [1]: 163 | Rank (before) [2]: 1430

WLYERLVGLILRYTKV
P8_MAL Rank (after) [10]: 638 | P8_MAL Rank (before) [11]: 1425

WLYERLVSLILRDTKV
Population [9]: 0.00402% and 0.00371%

WLYERLVSLILRDTQV
Rank (after) [1]: 108 | Rank (before) [2]: 1426

WLYERLVSLSLRDTKV
Rank (after) [1]: 168 | Rank (before) [2]: 1429

WLYVRLVSLILRDTKV
Rank (after) [1]: 144 | Rank (before) [2]: 1392

WQFHLRLRMHELLQKM
P3_MAL Rank (after) [5]: 245 | P3_MAL Rank (before) [6]: 1314

WRCLNFVPRCIMCCR
P3_MAL Rank (after) [3]: 482 | P3_MAL Rank (before) [4]: 1287

WSLFTVRSVLYAMSPA
P8_MAL Rank (after) [3]: 518 | P8_MAL Rank (before) [4]: 1407

WSYERLVRLILRDTKV
P8_MAL Rank (after) [3]: 539 | P8_MAL Rank (before) [4]: 1406

WSYERLVSLILRDTKV
Population [9]: 0.0034%

YAARANSGFHTFRDND
P3_MAL Rank (after) [7]: 740 | P3_MAL Rank (before) [8]: 1489

YAASPWWFDELVKIVG
Rank (after) [1]: 390 | Rank (before) [2]: 1526

YAFKGNLHRYLVQRGV
Rank (after) [12]: 162 | Rank (before) [13]: 1483

YAFPFHLFSCPELRGV
P3_MAL Rank (after) [7]: 742 | P3_MAL Rank (before) [8]: 1345

YAFSGHLLHDLVLIRE
Rank (after) [12]: 427 | Rank (before) [13]: 1347

YAFTAICIVIWCSVA
Rank (after) [12]: 133 | Rank (before) [13]: 726

YAFTCHLHRYLVQRGV
Population [14]: 0.00413%

YAFTDHLHRYLVQRGV
Population [14]: 0.00451%

YAFTDHLHRYLVQRSE
P3_MAL Rank (after) [3]: 555 | P3_MAL Rank (before) [4]: 1462

YAFTDHLHRYVVQRGV
P3_MAL Rank (after) [5]: 209 | P3_MAL Rank (before) [6]: 1463

YAFTGHFHCCKLQRGV
P3_MAL Rank (after) [10]: 666 | P3_MAL Rank (before) [11]: 1358

YAFTGHLERHEVQRGV
P3_MAL Rank (after) [7]: 715 | P3_MAL Rank (before) [8]: 1367

YAFTGHLHCYLVQRGI
P3_MAL Rank (after) [5]: 194 | P3_MAL Rank (before) [6]: 1375

YAFTGHLHGSLLQRRV
P3_MAL Rank (after) [10]: 670 | P3_MAL Rank (before) [11]: 1376

YAFTGHLHHIWCSVA
P3_MAL Rank (after) [7]: 686 | P3_MAL Rank (before) [8]: 1430

YAFTGHLHHYFAAKGIKM
Rank (after) [12]: 385 | Rank (before) [13]: 1428

YAFTGHLHHYLVQRGV
Population [14]: 0.00564%

YAFTGHLHQFHSWV
Rank (after) [12]: 480 | Rank (before) [13]: 1431

YAFTGHLHRFWCSVA
Rank (after) [12]: 158 | Rank (before) [13]: 727

YAFTGHLHRSLVQRGV
Population [14]: 0.00413%

YAFTGHLHRSLVQSGV
Rank (after) [12]: 154 | Rank (before) [13]: 1381

YAFTGHLHRYHLPAPQH
P3_MAL Rank (after) [5]: 277 | P3_MAL Rank (before) [6]: 739

YAFTGHLHRYLAQRGV
Population [14]: 0.00488%

YAFTGHLHRYLCSVA
Rank (after) [12]: 144 | Rank (before) [13]: 508

YAFTGHLHRYLLQKM
P3_MAL Rank (after) [5]: 254 | P3_MAL Rank (before) [6]: 737

YAFTGHLHRYLLQRGG
P3_MAL Rank (after) [3]: 543 | P3_MAL Rank (before) [4]: 1418

YAFTGHLHRYLMPRGV
P3_MAL Rank (after) [7]: 698 | P3_MAL Rank (before) [8]: 1420

YAFTGHLHRYLMRTKT
Population [14]: 0.00338% | Rank (after) [12]: 114 | Rank (before) [13]: 186

YAFTGHLHRYLQAKDH
P3_MAL Rank (after) [3]: 496 | P3_MAL Rank (before) [4]: 1419

YAFTGHLHRYLV*RGV
Population [14]: 0.00564%

YAFTGHLHRYLVQCGV
Population [14]: 0.00338%

YAFTGHLHRYLVQLGV
Population [14]: 0.00676%

YAFTGHLHRYLVQPGG
P3_MAL Rank (after) [5]: 249 | P3_MAL Rank (before) [6]: 1409

YAFTGHLHRYLVQRA
Rank (after) [12]: 137 | Rank (before) [13]: 398

YAFTGHLHRYLVQRAL
Population [14]: 0.00451% | Rank (after) [12]: 104 | Rank (before) [13]: 149

YAFTGHLHRYLVQRDM
Rank (after) [12]: 391 | Rank (before) [13]: 1403

YAFTGHLHRYLVQRFA
P3_MAL Rank (after) [3]: 514 | P3_MAL Rank (before) [4]: 1393

YAFTGHLHRYLVQRGA
Population [14]: 0.00338%

YAFTGHLHRYLVQRGEP
Rank (after) [12]: 443 | Rank (before) [13]: 1397

YAFTGHLHRYLVQRGI
Population [14]: 0.00338%

YAFTGHLHRYLVQRGL
Population [14]: 0.00376%

YAFTGHLHRYLVQRGVHGGD
P3_MAL Rank (after) [3]: 560 | P3_MAL Rank (before) [4]: 1396

YAFTGHLHRYLVQRKQI
P3_MAL Rank (after) [7]: 752 | P3_MAL Rank (before) [8]: 1404

YAFTGHLHRYLVQRRS
P3_MAL Rank (after) [7]: 704 | P3_MAL Rank (before) [8]: 1408

YAFTGHLHRYLVQRSGI
P3_MAL Rank (after) [5]: 203 | P3_MAL Rank (before) [6]: 733

YAFTGHLHRYLVRRGV
Population [14]: 0.00338%

YAFTGHLHRYLVRRSA
P3_MAL Rank (after) [3]: 561 | P3_MAL Rank (before) [4]: 1392

YAFTGHLHSYLVQRGV
Population [14]: 0.00338%

YAFTGHLNRSLVQRGV
P3_MAL Rank (after) [5]: 199 | P3_MAL Rank (before) [6]: 1440

YAFTGHLPRYLVQRGG
Rank (after) [12]: 425 | Rank (before) [13]: 1373

YAFTGHLQRYLLQRGV
Rank (after) [12]: 188 | Rank (before) [13]: 1460

YAFTGHLQRYLVQRGE
P3_MAL Rank (after) [7]: 719 | P3_MAL Rank (before) [8]: 1435

YAFTGHLRHHLQAKDH
Rank (after) [12]: 120 | Rank (before) [13]: 394

YAFTGHLRRYLLRRSV
Rank (after) [12]: 439 | Rank (before) [13]: 1372

YAFTGHLRRYLVLRGV
P3_MAL Rank (after) [3]: 509 | P3_MAL Rank (before) [4]: 1369

YAFTGHLRRYLVQRGV
Population [14]: 0.00338%

YAFTGHLRRYMVQRGV
P3_MAL Rank (after) [3]: 517 | P3_MAL Rank (before) [4]: 1370

YAFTGHLTGYLVQRGV
P3_MAL Rank (after) [5]: 220 | P3_MAL Rank (before) [6]: 1438

YAFTGHPHRSLVQRGV
P3_MAL Rank (after) [5]: 271 | P3_MAL Rank (before) [6]: 1446

YAFTGHPHRYLVQRGV
Population [14]: 0.00564%

YAFTGHQHNYMVQRGV
Rank (after) [12]: 420 | Rank (before) [13]: 1447

YAFTGHRHRYLVKRGV
Rank (after) [12]: 179 | Rank (before) [13]: 1445

YAFTGHVDRYLVQRGV
P3_MAL Rank (after) [5]: 285 | P3_MAL Rank (before) [6]: 1360

YAFTGHVHRYMVQRGV
P3_MAL Rank (after) [5]: 229 | P3_MAL Rank (before) [6]: 1362

YAFTGHVPGYLVQRGV
P3_MAL Rank (after) [7]: 757 | P3_MAL Rank (before) [8]: 1361

YAFTGPPHRYMVQRGV
Rank (after) [12]: 460 | Rank (before) [13]: 1354

YAFTGYLHRYLVQRGG
Rank (after) [12]: 445 | Rank (before) [13]: 1356

YAFTGYLHRYLVQRGV
Population [14]: 0.00827%

YAFTGYLHRYVVQRGV
P3_MAL Rank (after) [3]: 519 | P3_MAL Rank (before) [4]: 1355

YAFTRHLHRYLVHRGV
P3_MAL Rank (after) [7]: 714 | P3_MAL Rank (before) [8]: 1466

YAFTRHLHRYLVQRAA
P3_MAL Rank (after) [3]: 553 | P3_MAL Rank (before) [4]: 1465
